Data taken from patent US11053204B2, “Pyrimidinyloxy benzene derivatives as herbicides” (FMC Corporation, priority 2015, dated 2021).

Assays:
Test in all cases: Test C postemergence, plant response rating
Assay type in all cases: in vivo
[1] = tested on: foxtail, giant (giant foxtail, Setaria faberii); details: for Plant response rating, Foxtail, Giant: scale 0 to 100; for Foxtail, Giant plant response rating: scale 0 to 100 (0 no effect, 100 complete control)
Summary of the method: (§1)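 Both timings shared one formulation, a non-phytotoxic solvent mixture with surfactant, and a greenhouse period of 13 to 15 d. Preemergence used seeded loam/sand or silt loam soil, postemergence used 2 to 18 cm plants; visual ratings ran from 0 (no effect) to 100 (complete control).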

[2] = tested on: waterhemp (common waterhemp, Amaranthus rudis); details: for Plant response rating, Waterhemp: scale 0 to 100; for Waterhemp plant response rating: scale 0 to 100 (0 no effect, 100 complete control)
Summary of the method: as §1

[3] = tested on: chickweed (common chickweed, Stellaria media); details: for Plant response rating, Chickweed: scale 0 to 100; for Chickweed plant response rating: scale 0 to 100 (0 no effect, 100 complete control)
Summary of the method: as §1

[4] = tested on: soybean (Glycine max); details: for Plant response rating, Soybean: scale 0 to 100; for Soybean plant response rating: scale 0 to 100 (0 no effect, 100 complete control)
Summary of the method: as §1

[5] = tested on: nutsedge, yellow (yellow nutsedge, Cyperus esculentus); details: for Plant response rating, Nutsedge, Yellow: scale 0 to 100; for Nutsedge, Yellow plant response rating: scale 0 to 100 (0 no effect, 100 complete control)
Summary of the method: as §1

[6] = tested on: wheat (winter wheat, Triticum aestivum); details: for Plant response rating, Wheat: scale 0 to 100; for Wheat plant response rating: scale 0 to 100 (0 no effect, 100 complete control)
Summary of the method: as §1

[7] = tested on: morningglory (Ipomoea coccinea); details: for Plant response rating, Morningglory: scale 0 to 100; for Morningglory plant response rating: scale 0 to 100 (0 no effect, 100 complete control)
Summary of the method: as §1

[8] = tested on: lambsquarters (Chenopodium album); details: for Plant response rating, Lambsquarters: scale 0 to 100; for Lambsquarters plant response rating: scale 0 to 100 (0 no effect, 100 complete control)
Summary of the method: as §1

[9] = tested on: velvetleaf (Abutilon theophrasti); details: for Plant response rating, Velvetleaf: scale 0 to 100; for Velvetleaf plant response rating: scale 0 to 100 (0 no effect, 100 complete control)
Summary of the method: as §1

[10] = tested on: oat, wild (wild oat Avena fatua); details: for Plant response rating, Oat, Wild: scale 0 to 100; for Oat, Wild plant response rating: scale 0 to 100 (0 no effect, 100 complete control)
Summary of the method: as §1

[11] = tested on: kochia (Kochia scoparia); details: for Plant response rating, Kochia: scale 0 to 100; for Kochia plant response rating: scale 0 to 100 (0 no effect, 100 complete control)
Summary of the method: as §1

[12] = tested on: corn (Zea mays); details: for Plant response rating, Corn: scale 0 to 100; for Corn plant response rating: scale 0 to 100 (0 no effect, 100 complete control)
Summary of the method: as §1

[13] = tested on: oilseed rape (Brassica napus); details: for Plant response rating, Oilseed Rape: scale 0 to 100; for Oilseed Rape plant response rating: scale 0 to 100 (0 no effect, 100 complete control)
Summary of the method: as §1

[14] = tested on: galium (catchweed bedstraw, Galium aparine); details: for Plant response rating, Galium: scale 0 to 100; for Galium plant response rating: scale 0 to 100 (0 no effect, 100 complete control)
Summary of the method: as §1

[15] = tested on: ragweed (common ragweed, Ambrosia elatior); details: for Plant response rating, Ragweed: scale 0 to 100; for Ragweed plant response rating: scale 0 to 100 (0 no effect, 100 complete control)
Summary of the method: as §1

[16] = tested on: blackgrass (Alopecurus myosuroides); details: for Plant response rating, Blackgrass: scale 0 to 100; for Blackgrass plant response rating: scale 0 to 100 (0 no effect, 100 complete control)
Summary of the method: as §1

O=C(OCC(F)(F)F)c1c(Br)cccc1Oc1ncc(Cl)cn1 [Compound 35]
Plant response rating, Foxtail, Giant ([1]; 16 g ai/ha): 5 | Plant response rating, Foxtail, Giant ([1]; 31 g ai/ha): 10 | Foxtail, Giant plant response rating ([1]; 62 g ai/ha): 10 | Foxtail, Giant plant response rating ([1]; 125 g ai/ha): 20 | Plant response rating, Waterhemp ([2]; 16 g ai/ha): 65 | Plant response rating, Waterhemp ([2]; 31 g ai/ha): 80 | Waterhemp plant response rating ([2]; 62 g ai/ha): 90 | Waterhemp plant response rating ([2]; 125 g ai/ha): 95 | Plant response rating, Chickweed ([3]; 16 g ai/ha): 5 | Plant response rating, Chickweed ([3]; 31 g ai/ha): 40 | Chickweed plant response rating ([3]; 62 g ai/ha): 45 | Chickweed plant response rating ([3]; 125 g ai/ha): 50 | Plant response rating, Soybean ([4]; 16 g ai/ha): 25 | Plant response rating, Soybean ([4]; 31 g ai/ha): 25 | Soybean plant response rating ([4]; 62 g ai/ha): 35 | Soybean plant response rating ([4]; 125 g ai/ha): 35 | Plant response rating, Nutsedge, Yellow ([5]; 16 g ai/ha): 0 | Plant response rating, Nutsedge, Yellow ([5]; 31 g ai/ha): 0 | Nutsedge, Yellow plant response rating ([5]; 62 g ai/ha): 0 | Nutsedge, Yellow plant response rating ([5]; 125 g ai/ha): 5 | Plant response rating, Wheat ([6]; 16 g ai/ha): 0 | Plant response rating, Wheat ([6]; 31 g ai/ha): 0 | Wheat plant response rating ([6]; 62 g ai/ha): 0 | Wheat plant response rating ([6]; 125 g ai/ha): 0 | Plant response rating, Morningglory ([7]; 16 g ai/ha): 40 | Plant response rating, Morningglory ([7]; 31 g ai/ha): 50 | Morningglory plant response rating ([7]; 62 g ai/ha): 60 | Morningglory plant response rating ([7]; 125 g ai/ha): 60 | Plant response rating, Lambsquarters ([8]; 16 g ai/ha): 50 | Plant response rating, Lambsquarters ([8]; 31 g ai/ha): 40 | Lambsquarters plant response rating ([8]; 62 g ai/ha): 65 | Lambsquarters plant response rating ([8]; 125 g ai/ha): 70 | Plant response rating, Velvetleaf ([9]; 16 g ai/ha): 40 | Plant response rating, Velvetleaf ([9]; 31 g ai/ha): 30 | Velvetleaf plant response rating ([9]; 62 g ai/ha): 35 | Velvetleaf plant response rating ([9]; 125 g ai/ha): 40 | Plant response rating, Oat, Wild ([10]; 16 g ai/ha): 0 | Plant response rating, Oat, Wild ([10]; 31 g ai/ha): 0 | Oat, Wild plant response rating ([10]; 62 g ai/ha): 0 | Oat, Wild plant response rating ([10]; 125 g ai/ha): 0 | Plant response rating, Kochia ([11]; 16 g ai/ha): 5 | Plant response rating, Kochia ([11]; 31 g ai/ha): 40 | Kochia plant response rating ([11]; 62 g ai/ha): 60 | Kochia plant response rating ([11]; 125 g ai/ha): 90 | Plant response rating, Corn ([12]; 16 g ai/ha): 5 | Plant response rating, Corn ([12]; 31 g ai/ha): 10 | Corn plant response rating ([12]; 62 g ai/ha): 20 | Corn plant response rating ([12]; 125 g ai/ha): 20 | Plant response rating, Oilseed Rape ([13]; 16 g ai/ha): 20 | Plant response rating, Oilseed Rape ([13]; 31 g ai/ha): 30 | Oilseed Rape plant response rating ([13]; 62 g ai/ha): 50 | Oilseed Rape plant response rating ([13]; 125 g ai/ha): 65 | Plant response rating, Galium ([14]; 16 g ai/ha): 35 | Plant response rating, Galium ([14]; 31 g ai/ha): 35 | Galium plant response rating ([14]; 62 g ai/ha): 55 | Galium plant response rating ([14]; 125 g ai/ha): 60 | Plant response rating, Ragweed ([15]; 16 g ai/ha): 0 | Plant response rating, Ragweed ([15]; 31 g ai/ha): 5 | Ragweed plant response rating ([15]; 62 g ai/ha): 10 | Ragweed plant response rating ([15]; 125 g ai/ha): 20 | Plant response rating, Blackgrass ([16]; 16 g ai/ha): 0 | Plant response rating, Blackgrass ([16]; 31 g ai/ha): 0 | Blackgrass plant response rating ([16]; 62 g ai/ha): 10 | Blackgrass plant response rating ([16]; 125 g ai/ha): 10
